Data reported in ChEMBL document CHEMBL2439958, “Inhibitory effect of oxygenated cholestan-3β-ol derivatives on the growth of Mycobacterium tuberculosis” (Bioorg Med Chem Lett, 2013).
≈ marks a conversion by molar mass, not a printed value.

Key:
[1] = test system: Vero; test: Cytotoxicity against african green monkey Vero cells by tetrazolium dye reduction assay; type: ADME, cell-based; conditions: Chlorocebus sabaeus
[2] = test system: Mycobacterium tuberculosis; test: microbe, parasite or virus in culture; type: functional; conditions: H37Rv
[3] = Selectivity index, ratio of IC50 for african green monkey Vero cells to MIC90 for Mycobacterium tuberculosis H37Rv; type: functional

Row | Structure (SMILES) | IC50 [1] | MIC90 [2] | Selectivity Index [3]
1 | C[C@H](CCCC(C)(C)O)[C@H]1CC[C@H]2[C@@H]3CC=C4C[C@@H](O)CC[C@]4(C)[C@H]3CC[C@]12C | > 128 µM | > 128 µM | 
2 | C[C@@H](CO)CCC[C@@H](C)[C@H]1[C@@H](O)C[C@H]2[C@@H]3CC=C4C[C@@H](O)CC[C@]4(C)[C@H]3CC[C@]12C | > 128 µM | 6 µM (≈ 2.51 µg/mL) | >21
3 | CC(=O)O[C@H]1CC[C@@]2(C)[C@@H](CC(=O)[C@@H]3[C@@H]2CC[C@]2(C)[C@@H]([C@H](C)CCCC(C)C)CC[C@@H]32)C1 | > 128 µM | > 128 µM | 
4 | CC(C)CCC[C@@H](C)[C@H]1CC[C@H]2[C@@H]3C(=O)C[C@H]4C[C@@H](O)CC[C@]4(C)[C@H]3CC[C@]12C | 62 µM | 8 µM (≈ 3.22 µg/mL) | 7.8
5 | CC(C)CCC[C@@H](C)[C@H]1CC[C@H]2[C@@H]3[C@H](O)C[C@H]4C[C@@H](O)CC[C@]4(C)[C@H]3CC[C@]12C |  | > 128 µM | 
6 | CC(C)CCC[C@@H](C)[C@H]1CC[C@H]2[C@@H]3[C@@H](O)C[C@H]4C[C@@H](O)CC[C@]4(C)[C@H]3CC[C@]12C |  | > 128 µM | 
7 | CC(=O)O[C@H]1CC[C@@]2(C)C(=CC[C@H]3[C@@H]4CC[C@H]([C@H](C)CCCC(C)(C)O)[C@@]4(C)CC[C@@H]32)C1 |  | > 128 µM | 
8 | CC(=O)O[C@H]1CC[C@@]2(C)C(=CC(=O)[C@H]3[C@@H]4CC[C@H]([C@H](C)CCCC(C)(C)O)[C@@]4(C)CC[C@@H]32)C1 | > 128 µM | > 128 µM | 
9 | CC(=O)O[C@H]1CC[C@@]2(C)[C@@H](CC(=O)[C@@H]3[C@@H]2CC[C@]2(C)[C@@H]([C@H](C)CCCC(C)(C)O)CC[C@@H]32)C1 | > 128 µM | > 128 µM | 
10 | C[C@H](CCCC(C)(C)O)[C@H]1CC[C@H]2[C@@H]3[C@H](O)C[C@H]4C[C@@H](O)CC[C@]4(C)[C@H]3CC[C@]12C |  | > 128 µM | 
11 | C[C@H](CCCC(C)(C)O)[C@H]1CC[C@H]2[C@@H]3[C@@H](O)C[C@H]4C[C@@H](O)CC[C@]4(C)[C@H]3CC[C@]12C | > 128 µM | 24 µM (≈ 10.1 µg/mL) | >5.3
12 | CC(C)CCC[C@@H](C)[C@H]1CC[C@H]2[C@@H]3CC(=O)[C@H]4C[C@@H](O[Si](C)(C)C)CC[C@]4(C)[C@H]3CC[C@]12C | 38 µM | 3.5 µM (≈ 1.66 µg/mL) | 10.9
13 | CC(C)CCC[C@@H](C)[C@H]1CC[C@H]2[C@@H]3[C@H](F)C(=O)[C@H]4C[C@@H](O)CC[C@]4(C)[C@H]3CC[C@]12C | 40 µM | 4.6 µM (≈ 1.94 µg/mL) | 8.7
14 | CC(C)CCC[C@@H](C)[C@H]1CC[C@H]2[C@@H]3[C@H](F)[C@@H](O)[C@H]4C[C@@H](O)CC[C@]4(C)[C@H]3CC[C@]12C | 41 µM | > 128 µM | <0.4
15 | C[C@@H](CO)CCC[C@@H](C)[C@H]1CC[C@H]2[C@@H]3CC=C4C[C@@H](O)CC[C@]4(C)[C@H]3CC[C@]12C |  | > 128 µM | 
16 | CC(C)CCC[C@@H](C)[C@H]1CC[C@H]2[C@@H]3CC(=O)[C@H]4C[C@@H](O)CC[C@]4(C)[C@H]3CC[C@]12C [5alpha-CHOLESTAN-3beta-OL-6-ONE] | 92 µM | 6 µM (≈ 2.42 µg/mL) | 15.3
17 | CC(C)CCC[C@@H](C)[C@H]1CC[C@H]2[C@@H]3C(=O)C=C4C[C@@H](O)CC[C@]4(C)[C@H]3CC[C@]12C [7-OXOCHOLESTEROL] | 75 µM | > 128 µM | <0.6
18 | CC(=O)O[C@H]1CC[C@@]2(C)C(=CC(=O)[C@H]3[C@@H]4CC[C@H]([C@H](C)CCCC(C)C)[C@@]4(C)CC[C@@H]32)C1 [7-OXOCHOLESTERYL ACETATE] | > 128 µM | > 128 µM | 
19 | C[C@@H]1CC[C@@]2(OC1)O[C@H]1C[C@H]3[C@@H]4CC=C5C[C@@H](O)CC[C@]5(C)[C@H]4CC[C@]3(C)[C@H]1[C@@H]2C [DISOGENIN] |  | > 128 µM | 
20 | NNC(=O)c1ccncc1 [ISONIAZID] | > 128 µM | 0.4 µM (≈ 0.0549 µg/mL) | >320
21 | CO[C@H]1/C=C/O[C@@]2(C)Oc3c(C)c(O)c4c(O)c(c(/C=N/N5CCN(C)CC5)c(O)c4c3C2=O)NC(=O)/C(C)=C\C=C\[C@H](C)[C@H](O)[C@@H](C)[C@@H](O)[C@@H](C)[C@H](OC(C)=O)[C@@H]1C [RIFAMPIN] |  | 0.07 µM (≈ 0.0576 µg/mL) | 
